Assay results published in patent US20200131176A1, “SELECTIVE INHIBITORS OF CLINICALLY IMPORTANT MUTANTS OF THE EGFR TYROSINE KINASE” (CS Pharmatech Limited, priority 2017, published 2020).
pIC50: −log10 of the molar value. Where “and” joins values, the source holds several entries; their conditions need not be identical. Equal entries are not always repeated. Where two headings read alike, the source gives them in different places.

Legend:
[1] = biological target: T1, L858R/T790M double mutant EGFR in H1975 cells (Homo sapiens, UniProt P00533, L858R/T790M); test: L858R/T790M double mutant H1975 autophosphorylation inhibition assay (ELISA); assay type: cell-based; conditions: cellular EGFR autophosphorylation, H1975, 2 h treatment; read-out: DM (H1975) IC50
T1 construct: endogenous in cells; host or cells: H1975 cells
T1 sequence (P00533 25-1210 T790M/L858R): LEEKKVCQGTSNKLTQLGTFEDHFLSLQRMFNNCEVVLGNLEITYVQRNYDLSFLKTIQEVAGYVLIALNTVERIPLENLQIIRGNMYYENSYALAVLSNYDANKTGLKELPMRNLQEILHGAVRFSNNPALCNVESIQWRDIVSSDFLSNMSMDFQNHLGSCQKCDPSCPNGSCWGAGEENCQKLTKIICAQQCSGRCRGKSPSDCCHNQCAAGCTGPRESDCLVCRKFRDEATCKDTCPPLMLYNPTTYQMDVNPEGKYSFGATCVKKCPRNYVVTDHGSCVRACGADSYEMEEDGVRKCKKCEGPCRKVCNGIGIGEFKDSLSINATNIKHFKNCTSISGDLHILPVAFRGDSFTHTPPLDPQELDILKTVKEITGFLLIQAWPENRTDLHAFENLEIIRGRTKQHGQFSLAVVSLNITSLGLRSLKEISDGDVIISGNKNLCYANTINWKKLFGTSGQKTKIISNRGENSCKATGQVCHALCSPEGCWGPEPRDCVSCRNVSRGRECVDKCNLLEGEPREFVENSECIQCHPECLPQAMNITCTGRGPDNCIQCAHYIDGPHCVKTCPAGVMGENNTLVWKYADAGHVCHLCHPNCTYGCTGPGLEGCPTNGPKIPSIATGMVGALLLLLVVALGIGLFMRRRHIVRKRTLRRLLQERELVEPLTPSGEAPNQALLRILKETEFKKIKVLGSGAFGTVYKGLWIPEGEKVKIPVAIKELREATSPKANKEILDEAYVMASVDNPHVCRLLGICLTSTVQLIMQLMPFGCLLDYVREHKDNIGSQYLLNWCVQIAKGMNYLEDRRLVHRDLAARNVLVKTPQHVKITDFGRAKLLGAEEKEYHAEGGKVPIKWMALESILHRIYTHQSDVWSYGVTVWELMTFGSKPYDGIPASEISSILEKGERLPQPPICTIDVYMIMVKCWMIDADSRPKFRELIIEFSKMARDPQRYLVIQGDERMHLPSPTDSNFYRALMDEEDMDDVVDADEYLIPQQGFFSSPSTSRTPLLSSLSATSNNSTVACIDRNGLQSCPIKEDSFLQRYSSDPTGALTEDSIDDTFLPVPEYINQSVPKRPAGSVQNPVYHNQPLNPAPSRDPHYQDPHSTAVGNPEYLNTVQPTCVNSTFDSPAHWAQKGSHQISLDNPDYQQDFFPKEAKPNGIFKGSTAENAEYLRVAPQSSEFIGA

PC-9 cells = test: PC-9 growth inhibition assay (cell proliferation, CellTiter-Glo, 72 h); assay type: cell-based, human; conditions: cellular proliferation, PC9 cells, single mutant EGFR, read-out: PC9 IC50 (nM) SM
Procedure: (§1) Then incubate the flasks at 37° C. until the cells detach.
(§2) Test compounds were dissolved in DMSO at 30 mM.
(§3) The final concentration was 1,000 cells/well. Add medium only as low control.
(§4) After 72 hours incubation, remove the plates from incubator and equilibrate at room temperature for 15 minutes. Incubate the CellTiter Glo reagents (Promega, G9243) at 37° C. before the experiment. The buffer was equilibrated to room temperature and used to dissolve the substrate. To determine the cell viability, add 40 μL of CellTiter-Glo reagent into each well to be detected (at 1:1 to culture medium). Then the place the plates at room temperature for 30 min followed by read on EnSpire (PerkinElmer).
(§5) For estimation of IC50, the luminescence readout are transformed to % Inhibition by applying the following equation:

A431 cells = test: A431 inhibition assay (cell proliferation, CellTiter-Glo, 72 h); assay type: cell-based, human; conditions: cellular proliferation, wild type EGFR, read-out: A431 IC50 (nM) WT
Procedure: as §1, §2, §3, §4, §5

[2] = biological target: T2, Exon 19 deletion EGFR (activating single mutant) in PC-9 cells (Homo sapiens, UniProt P00533, DEL746-750); test: Exon 19 deletion EGFR PC-9 cellular autophosphorylation assay (p-EGFR ELISA); assay type: cell-based; conditions: PC9, 2 h treatment, read-out: SM (PC9) IC50
T2 construct: cellular phosphorylation of endogenous p-EGFR; host or cells: PC9 (PC-9) human lung cell line
T2 sequence (P00533 with tags, fused parts or gaps DEL746-750): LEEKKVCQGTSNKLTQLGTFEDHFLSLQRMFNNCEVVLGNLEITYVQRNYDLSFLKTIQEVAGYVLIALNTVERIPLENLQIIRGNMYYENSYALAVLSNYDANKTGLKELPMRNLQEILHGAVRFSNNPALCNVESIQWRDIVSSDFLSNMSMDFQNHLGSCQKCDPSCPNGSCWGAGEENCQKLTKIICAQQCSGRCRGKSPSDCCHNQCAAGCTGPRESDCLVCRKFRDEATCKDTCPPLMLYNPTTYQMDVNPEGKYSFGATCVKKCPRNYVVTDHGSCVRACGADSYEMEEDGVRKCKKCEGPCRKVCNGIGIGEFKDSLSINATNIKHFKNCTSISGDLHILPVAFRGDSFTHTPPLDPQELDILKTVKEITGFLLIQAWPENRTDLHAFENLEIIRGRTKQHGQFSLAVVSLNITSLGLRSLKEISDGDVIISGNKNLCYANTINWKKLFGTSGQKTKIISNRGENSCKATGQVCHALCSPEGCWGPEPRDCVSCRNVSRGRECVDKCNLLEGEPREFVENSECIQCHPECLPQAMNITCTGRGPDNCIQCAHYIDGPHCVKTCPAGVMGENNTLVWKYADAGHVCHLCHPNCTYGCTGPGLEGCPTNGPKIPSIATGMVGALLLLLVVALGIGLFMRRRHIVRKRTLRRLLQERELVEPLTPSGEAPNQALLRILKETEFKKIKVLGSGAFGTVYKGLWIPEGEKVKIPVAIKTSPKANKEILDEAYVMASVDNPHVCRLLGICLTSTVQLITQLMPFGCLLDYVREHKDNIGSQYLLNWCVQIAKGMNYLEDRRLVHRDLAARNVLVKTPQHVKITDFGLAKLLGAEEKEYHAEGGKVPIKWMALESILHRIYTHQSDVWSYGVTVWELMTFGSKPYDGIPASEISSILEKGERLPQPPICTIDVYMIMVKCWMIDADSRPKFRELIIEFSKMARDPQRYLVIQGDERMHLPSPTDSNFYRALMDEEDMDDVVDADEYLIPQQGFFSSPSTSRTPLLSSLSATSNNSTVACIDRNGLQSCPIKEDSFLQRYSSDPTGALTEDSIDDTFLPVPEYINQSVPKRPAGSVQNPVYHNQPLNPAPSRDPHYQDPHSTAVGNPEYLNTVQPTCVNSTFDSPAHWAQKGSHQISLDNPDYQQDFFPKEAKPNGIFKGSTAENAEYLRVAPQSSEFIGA
Procedure: The human lung cell line PC9 (Exon 19 deletion EGFR) were obtained from the American type Culture Collection. […] Cells were grown in a humidified incubator at 37° C. with 5% CO2, Assays to measure cellular phosphorylation of endogenous p-EGFR in cell Iysates were carried out according to the protocol described in the R&D Systems DuoSet IC Human Phospho-EGF R ELISA (R&D Systems catalogue number # DYCI095). 40 μL of cells were seeded (10000 cells/well) in growth medium in Coming black, clear-bottomed 384-well plates and incubated at 37° C. with 5% CO2 overnight. […] Plates were incubated for a further 2 h, then following aspiration of medium, 40 μL× lysis buffer is added to each well. Greiner black high bind 384 well plates were coated with capture antibody and then blocked with 3% BSA. Following removal of block, 15 μL of lysate are transferred to the Greiner black high bind 384 well plates and incubated for 2 hours. Following aspiration and washing of the plates with PBS, 20 μL of detection antibody were added and incubated for 2 hours. […] The data obtained with each compound are exported into a suitable software package (such as Origin) to perform curve fitting analysis.

IGF-1R = biological target: T3, IGF-1R (Homo sapiens, UniProt P08069); test: IGF-1R inhibition assay (Caliper mobility shift); assay type: biochemical; conditions: enzyme assay
T3 construct: purchased CARNA BIOSCIENCE 08-141
T3 sequence (P08069 959-1367 limits assumed): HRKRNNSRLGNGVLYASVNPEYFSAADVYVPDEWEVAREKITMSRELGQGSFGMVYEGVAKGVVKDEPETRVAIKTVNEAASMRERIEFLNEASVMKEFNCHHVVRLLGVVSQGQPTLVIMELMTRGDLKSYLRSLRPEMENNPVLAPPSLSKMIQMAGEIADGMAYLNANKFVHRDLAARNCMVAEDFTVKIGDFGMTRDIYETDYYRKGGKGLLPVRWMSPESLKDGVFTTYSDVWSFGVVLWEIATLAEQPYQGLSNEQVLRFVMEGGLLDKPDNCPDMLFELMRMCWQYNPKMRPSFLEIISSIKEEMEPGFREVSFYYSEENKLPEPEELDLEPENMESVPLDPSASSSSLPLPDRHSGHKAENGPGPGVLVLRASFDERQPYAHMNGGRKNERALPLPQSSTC
Procedure: Test compound was dissolved in DMSO at 30 mM. […] 20 nL of these compounds DMSO dilutes were dispensed into a new 384-well assay plate by Echo 550. […] 15 μL of kinase assay buffer containing IGF-1R protein and substrate was transferred to assay plate and incubate at RT for 30 minutes. Kinase assay buffer supplemented with substrate peptides was employed as low control to monitor the background. 40 μM ATP was prepared in kinase assay buffer containing and 5 μL of ATP solution was added to each well to start the reaction. The assay plate was incubated at 25° C. for 180 minutes and the reaction was stopped by adding 40 μL of 0.5 M EDTA.
Phosphorylated fluorescent-tagged peptides were differentiated from non-phosphorylated peptides by separating using Caliper EZ Reader II and the detection was directly converted to conversion ratio.

Mouse in vivo PK study [3] = conditions: male CD1 mice
Procedure: To determine the drug concentration in plasma of the compounds of the present disclosure following intravenous and oral administration in male CD 1 Mice, pharmacokinetic profile and PK parameters were obtained.
Test animals: healthy male CD1 mice (body weight 20-30 g, 18 mice, free access to food and water), provided by Sibeifu laboratory. […]
Samples collection: the healthy animals were used, weighed the bodyweight and marked at tail and cage card prior to dosing. Blood samples (0.03 mL per time point) were collected from dorsal metatarsal vein at 0.083, 0.25, 0.5, 1, 2, 4, 8, 24 h post dose for IV group and at 0.25, 0.5, 1, 2, 4, 8, 24 h post dose for PO group, the terminal time point was collected from heart (˜0.3 mL). The blood samples were put into the tube with heparin-Na coated and then put on the cold box, centrifuged at 4° C. 4000 g, 5 minutes immediately after collecting all samples per time point to get plasma. The plasma samples were stored in a freezer at −75±15° C. prior to analysis.
The drug concentration was determined by LC/MS/MS method, and the PK parameters were observed as follows.

INSR = biological target: T4, INSR (Homo sapiens, UniProt P06213); test: INSR inhibition assay (Caliper mobility shift); assay type: biochemical; conditions: enzyme assay
T4 construct: purchased CARNA BIOSCIENCE 08-142
Procedure: Test compound was dissolved in DMSO at 30 mM. […] 20 nL of these compounds DMSO dilutes were dispensed into a new 384-well assay plate by Echo 550. […] 15 μL of kinase assay buffer containing INSR protein and substrate was transferred to assay plate and incubate at RT for 30 minutes. Kinase assay buffer supplemented with substrate peptides was employed as low control to monitor the background. 40 μM ATP was prepared in kinase assay buffer containing and 5 μL of ATP solution was added to each well to start the reaction. The assay plate was incubated at 25° C. for 180 minutes and the reaction was stopped by adding 40 μL of 0.5 M EDTA.
The result was analyzed in the same manner as IGF-IR.

H1975 cells = test: H1975 inhibition assay (cell proliferation, CellTiter-Glo, 72 h); assay type: cell-based, human; conditions: cellular proliferation, double mutant EGFR, read-out: NCI-H1975 IC50 (nM) DM
Procedure: H1975 Inhibition Assay (Cell Proliferation).
as §2, §3, §4, §5

Mouse in vivo PK study [4] = conditions: male CD1 mice; remark: listed apart in the source
[5] = biological target: Wild type EGFR in A431 cells (Homo sapiens, UniProt P00533); conditions: WT (A431) IC50 nM, cellular EGFR autophosphorylation, A431, 2 h treatment then EGF stimulation 10 min
Wild type EGFR in A431 cells, sequence (P00533 25-1210): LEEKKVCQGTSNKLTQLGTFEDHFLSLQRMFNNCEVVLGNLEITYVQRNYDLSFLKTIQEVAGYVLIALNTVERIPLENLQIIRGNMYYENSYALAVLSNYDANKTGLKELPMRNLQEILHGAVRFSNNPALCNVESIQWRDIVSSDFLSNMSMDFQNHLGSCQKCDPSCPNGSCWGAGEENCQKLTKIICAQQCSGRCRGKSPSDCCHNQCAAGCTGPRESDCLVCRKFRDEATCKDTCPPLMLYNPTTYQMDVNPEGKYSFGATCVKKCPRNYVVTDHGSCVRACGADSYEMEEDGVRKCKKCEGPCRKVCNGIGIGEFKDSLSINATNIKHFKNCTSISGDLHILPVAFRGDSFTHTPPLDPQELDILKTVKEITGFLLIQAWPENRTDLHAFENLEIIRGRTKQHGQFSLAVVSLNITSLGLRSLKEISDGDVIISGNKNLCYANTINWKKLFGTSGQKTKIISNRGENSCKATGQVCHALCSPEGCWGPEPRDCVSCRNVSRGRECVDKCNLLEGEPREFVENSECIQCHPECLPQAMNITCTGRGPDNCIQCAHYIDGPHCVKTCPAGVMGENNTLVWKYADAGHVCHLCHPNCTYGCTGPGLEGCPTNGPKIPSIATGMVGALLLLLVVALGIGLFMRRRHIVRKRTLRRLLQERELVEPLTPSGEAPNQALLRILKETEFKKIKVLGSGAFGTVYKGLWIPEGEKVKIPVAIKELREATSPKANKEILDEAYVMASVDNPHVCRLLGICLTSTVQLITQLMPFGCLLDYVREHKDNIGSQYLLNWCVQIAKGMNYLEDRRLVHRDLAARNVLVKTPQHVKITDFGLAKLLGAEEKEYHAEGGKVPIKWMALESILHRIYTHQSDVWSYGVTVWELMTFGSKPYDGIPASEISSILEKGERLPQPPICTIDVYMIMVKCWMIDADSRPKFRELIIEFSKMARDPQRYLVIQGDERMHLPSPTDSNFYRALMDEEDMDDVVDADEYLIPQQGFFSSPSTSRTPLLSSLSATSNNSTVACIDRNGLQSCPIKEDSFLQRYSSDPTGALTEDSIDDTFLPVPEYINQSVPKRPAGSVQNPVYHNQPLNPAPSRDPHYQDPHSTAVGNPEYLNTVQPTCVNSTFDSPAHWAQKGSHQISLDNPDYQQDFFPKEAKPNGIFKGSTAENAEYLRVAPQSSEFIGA

[6] = biological target: hERG channel (HEK 293 cell line stably expressing hERG channel) (Homo sapiens, UniProt Q12809); test: cell-based
hERG channel (HEK 293 cell line stably expressing hERG channel), sequence (Q12809 whole entry): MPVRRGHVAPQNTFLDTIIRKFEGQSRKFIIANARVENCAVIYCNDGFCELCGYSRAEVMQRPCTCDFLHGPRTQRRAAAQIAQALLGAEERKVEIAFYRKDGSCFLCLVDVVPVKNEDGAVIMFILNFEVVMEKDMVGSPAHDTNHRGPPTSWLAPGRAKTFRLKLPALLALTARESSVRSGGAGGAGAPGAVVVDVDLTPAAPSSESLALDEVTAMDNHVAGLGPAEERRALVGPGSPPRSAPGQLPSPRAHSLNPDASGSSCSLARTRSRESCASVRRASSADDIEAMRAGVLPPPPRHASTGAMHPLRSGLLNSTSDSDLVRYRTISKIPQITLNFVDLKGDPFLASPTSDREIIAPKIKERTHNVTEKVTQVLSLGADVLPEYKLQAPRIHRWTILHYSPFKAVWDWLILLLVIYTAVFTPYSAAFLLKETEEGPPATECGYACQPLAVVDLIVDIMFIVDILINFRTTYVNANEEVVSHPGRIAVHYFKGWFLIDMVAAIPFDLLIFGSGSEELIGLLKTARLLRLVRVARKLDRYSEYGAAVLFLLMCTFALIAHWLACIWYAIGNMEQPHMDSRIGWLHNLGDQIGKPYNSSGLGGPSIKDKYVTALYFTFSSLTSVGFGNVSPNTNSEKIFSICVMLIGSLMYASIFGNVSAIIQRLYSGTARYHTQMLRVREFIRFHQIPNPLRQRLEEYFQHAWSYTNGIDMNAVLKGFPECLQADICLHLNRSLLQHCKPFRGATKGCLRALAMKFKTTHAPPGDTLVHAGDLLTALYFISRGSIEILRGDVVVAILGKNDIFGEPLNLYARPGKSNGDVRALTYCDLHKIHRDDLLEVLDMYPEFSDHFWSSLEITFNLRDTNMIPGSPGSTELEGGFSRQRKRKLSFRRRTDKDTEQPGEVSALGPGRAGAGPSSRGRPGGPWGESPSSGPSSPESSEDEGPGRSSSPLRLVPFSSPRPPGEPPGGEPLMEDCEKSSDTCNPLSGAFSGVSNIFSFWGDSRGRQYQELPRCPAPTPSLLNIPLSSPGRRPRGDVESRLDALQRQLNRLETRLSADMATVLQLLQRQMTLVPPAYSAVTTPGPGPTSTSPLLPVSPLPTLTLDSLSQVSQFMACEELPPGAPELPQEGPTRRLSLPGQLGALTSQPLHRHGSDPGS

[7] = test system: H1975 NSCLC cells xenograft (EGFR L858R/T790M double mutant); test: EGFR L858R/T790M double-mutant H1975 xenograft model; assay type: in vivo, nu/nu mice; conditions: day 10 after dosing; for Tumor Size: average ± SEM, n = 9
Procedure: Appropriately transformed cells, either from ATCC cell lines, known to carry the oncogene of interest, or from deliberate transfections, are suspended in appropriate media, and 5×10^6 or 1×10^7 cells are injected into the flank of nu/nu mice. Alternatively trochar placement of fragments of in vivo passaged tumors, usually about 1 mm^3 can be used to initiate the tumors. When tumors have reached an appropriate size for the experiment, usually in the 100-300 mg range, animals are randomized into matched groups of 6-10 mice, and tumor size and given vehicle or test article by perioral gavage once or twice daily. Tumor volumes are determined using calipers. The percentage increase in the volume of a xenograft tumor on day n versus day 0 (the day when dosing of the test compound began) is calculated as (tumor volume on day n−tumor volume on day 0/tumor volume on day 0)×100. The mean percentage of tumor growth inhibition in each drug-treated group relative to the vehicle-treated group is calculated as (1−mean percent increase of tumor volume in the drug-treated group/mean percent increase of the tumor volume in the vehicle-treated group)×100. Statistical significance is evaluated using a one-tailed t test.
Tumor size was measured on day 10 after dosing.

[8] = mouse, plasma, 10 mg/kg PO, read-out: T1/2 (PO) (converted)

SMILES	pIC50 [1]	IC50 (PC-9 cells; Homo sapiens, PC-9, 72 h)	IC50 (A431 cells; Homo sapiens, A-431, 72 h)	pIC50 [2]	IC50 (IGF-1R)	IC50 (INSR)	IC50 (H1975 cells; Homo sapiens, NCI-H1975, 72 h)	AUC (Mouse in vivo PK study [4]; mouse, plasma, 10 mg/kg PO)	Cmax (Mouse in vivo PK study [4]; mouse, plasma, 10 mg/kg PO)	half-life (Mouse in vivo PK study [4]; [8])	IC50 [5]	pIC50 [6]	TGI (tumor growth inhibition) ([7]; 5 mg/kg)	TRTV/CRTV (relative tumor volume) ([7]; 5 mg/kg)	Tumor Size ([7]; 5 mg/kg)	TGI (tumor growth inhibition) ([7]; 15 mg/kg)	TRTV/CRTV (relative tumor volume) ([7]; 15 mg/kg)	Tumor Size ([7]; 15 mg/kg)	TGI (tumor growth inhibition) ([7]; 30 mg/kg)	TRTV/CRTV (relative tumor volume) ([7]; 30 mg/kg)	further results
C=CC(=O)Nc1cc(Nc2nccc(-c3cc(C#N)c4c(c3)c(C)cn4C)n2)c(OC)cc1N(C)CCN(C)C [Example 2, N-(5-((4-(7-Cyano-1,3-dimethyl-1H-indol-5-yl)pyrimidin-2-yl)amino)-2-((2-(dimethylamino)ethyl)(methyl)amino)-4-methoxyphenyl)acrylamide]	8.37 and 8.60	4.18 nM	2120 nM	8.15 and 8.27	1120 nM	1820 nM	4.77 nM	976 ng·h/mL	119 ng/mL	2.57 h	77.1 nM and 166 nM	5.18	96.93%	19.70%	230 ± 93 mm^3	115.76%	3.93%	46 ± 32 mm^3	115.52%	3.92%	IC50 (PC-9 cells): 3.22 nM; IC50 (A431 cells): 3680 nM; AUC (Mouse in vivo PK study [3]; mouse, plasma, 2 mg/kg IV): 937 ng·h/mL; IC50 (H1975 cells; NCI-H1975 cells): 3.45 nM; F (Mouse in vivo PK study [4]; 2 mg/kg IV, 10 mg/kg PO): 20.8%; clearance (Mouse in vivo PK study [4]; mouse, plasma, 2 mg/kg IV): 35.5 mL/min/kg; half-life (Mouse in vivo PK study [4]; mouse, plasma, 2 mg/kg IV, read-out: T1/2 (IV) (converted)): 1.5 h; Tumor Size ([7]; 30 mg/kg): 45 ± 19 mm^3
C=CC(=O)Nc1cc(Nc2nccc(-n3nc(N(C)C)c4cc(Cl)sc43)n2)c(OC)cc1N(C)CCN(C)C [Example 6, N-(5-((4-(5-Chloro-3-(dimethylamino)-1H-thieno[2,3-c]pyrazol-1-yl)pyrimidin-2-yl)amino)-2-((2-(dimethylamino)ethyl)(methyl)amino)-4-methoxyphenyl)acrylamide]	8.12	1.82 nM	1090 nM	8.08	2090 nM	2310 nM	2.6 nM	784 ng·h/mL	117 ng/mL	2.67 h	72.5 nM	5.59	99.56%	17.49%	203 ± 24 mm^3	114.04%	5.34%	63 ± 30 mm^3	117.41%	2.42%	F (Mouse in vivo PK study [3]; 1 mg/kg IV, 10 mg/kg PO): 46.7%; AUC (Mouse in vivo PK study [3]; mouse, plasma, 1 mg/kg IV): 168 ng·h/mL; clearance (Mouse in vivo PK study [3]; mouse, plasma, 1 mg/kg IV): 100 mL/min/kg; half-life (Mouse in vivo PK study [3]; mouse, plasma, 1 mg/kg IV, read-out: T1/2 (IV) (converted)): 0.92 h; Tumor Size ([7]; 30 mg/kg): 28 ± 9 mm^3
